Reference: patent US7217730B2, “Method for the use of pyranoindole derivatives to treat infection with Hepatitis C virus” (Wyeth, priority 2002, dated 2007)
pIC50: −log10 of the molar value. Where two headings read alike, the source gives them in different places.

What was measured:
[1] = biological target: T1, NS5B from the BK strain (genotype 1b) (Hepatitis C virus genotype 1b, UniProt P26663); test: Hepatitis C polymerase inhibition, NS5B BK strain, 33P-GTP filter assay; format: biochemical; conditions: NS5B BK strain
T1 construct: NS5B from the BK strain (genotype 1b) is expressed in E. coli as a protein in which the 21 C-terminal amino acids are replaced; made in house; host or cells: E. coli
T1 sequence (P26663 2420-2989): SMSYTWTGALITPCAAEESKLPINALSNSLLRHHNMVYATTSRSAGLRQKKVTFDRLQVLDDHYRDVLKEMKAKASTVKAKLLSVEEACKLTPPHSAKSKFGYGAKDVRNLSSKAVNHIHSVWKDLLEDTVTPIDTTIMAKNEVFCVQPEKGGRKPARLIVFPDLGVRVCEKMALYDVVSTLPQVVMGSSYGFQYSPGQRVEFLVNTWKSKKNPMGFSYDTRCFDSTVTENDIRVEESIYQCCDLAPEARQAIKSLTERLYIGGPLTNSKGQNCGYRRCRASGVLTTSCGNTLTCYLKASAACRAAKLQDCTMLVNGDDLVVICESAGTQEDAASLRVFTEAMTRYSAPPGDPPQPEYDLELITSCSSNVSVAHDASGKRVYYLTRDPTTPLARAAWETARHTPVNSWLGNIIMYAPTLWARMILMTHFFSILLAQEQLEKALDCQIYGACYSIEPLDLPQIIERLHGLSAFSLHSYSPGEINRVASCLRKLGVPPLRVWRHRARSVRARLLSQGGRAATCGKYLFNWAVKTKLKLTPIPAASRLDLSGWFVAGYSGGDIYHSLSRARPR
In short: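 Radiolabelled RNA synthesis was measured by filter capture and scintillation counting after EDTA stop. His-tagged, C-terminally truncated (Δ21) genotype 1b BK NS5B from E. coli, pre-exposed to compound for 15 min, copied a self-primed RNA template (~3 nM) with α-[33P]-GTP for 2 h at room temperature.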

[2] = biological target: BB7 (RNA-dependent RNA polymerase hepatitis C virus protein sequence derived from HCV replicon) (Hepatitis C virus genotype 1b, UniProt Q9WMX2); test: Hepatitis C polymerase inhibition, BB7 sequence; format: biochemical; conditions: Table 1B
Chain of BB7 (RNA-dependent RNA polymerase hepatitis C virus protein sequence derived from HCV replicon) (Q9WMX2 2420-3010): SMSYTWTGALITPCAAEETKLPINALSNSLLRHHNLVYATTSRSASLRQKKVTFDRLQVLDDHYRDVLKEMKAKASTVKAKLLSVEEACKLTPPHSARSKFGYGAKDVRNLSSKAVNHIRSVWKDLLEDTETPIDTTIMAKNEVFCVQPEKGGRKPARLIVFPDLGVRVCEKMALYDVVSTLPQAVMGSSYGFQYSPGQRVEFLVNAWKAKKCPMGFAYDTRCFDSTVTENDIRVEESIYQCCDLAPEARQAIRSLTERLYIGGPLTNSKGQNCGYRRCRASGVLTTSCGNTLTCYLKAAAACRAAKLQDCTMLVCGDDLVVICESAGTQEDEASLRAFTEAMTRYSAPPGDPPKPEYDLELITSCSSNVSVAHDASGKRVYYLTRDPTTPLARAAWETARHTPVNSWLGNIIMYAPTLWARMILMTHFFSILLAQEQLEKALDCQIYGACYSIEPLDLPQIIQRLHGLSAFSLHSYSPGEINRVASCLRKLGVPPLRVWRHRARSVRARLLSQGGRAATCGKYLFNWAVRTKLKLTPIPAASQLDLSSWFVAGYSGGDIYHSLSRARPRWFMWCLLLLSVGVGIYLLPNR

| Compound | melting point [°C] | pIC50 ([1]; Table 1A, read-out: HCV pol BK IC50) | pIC50 [2] | pIC50 ([1]; Table 1B, read-out: BK IC50) |
| --- | --- | --- | --- | --- |
| CCCC1(CC(=O)O)OCCc2c1[nH]c1c(F)ccc(C(=O)N3CCOCC3)c21 (centres unmarked) [Example 225, [8-Fluoro-5-(morpholine-4-carbonyl)-1-propyl-1,3,4,9-tetrahydro-pyrano[3,4-b]indol-1-yl]-acetic Acid] | 98 to 100 | < 4.70 |  |  |
| CCCC1(C(=O)O)OCCc2c1[nH]c1c(C)cc(F)c(C#N)c21 (centres unmarked) [Example 339, (5-cyano-6-fluoro-8-methyl-1-propyl-1,3,4,9-tetrahydropyrano[3,4-b]indol-1-yl)carboxylic acid] |  |  | 5.55 | 6.31 |
| CCCC1(C(=O)O)OCCc2c1[nH]c1c(CC)ccc(C#N)c21 (centres unmarked) [Example 340, (5-cyano-8-ethyl-1-propyl-1,3,4,9-tetrahydropyrano[3,4-b]indol-1-yl)carboxylic acid] |  |  | < 4.55 | < 4.52 |
| CCCC1(C(=O)O)OCCc2c1[nH]c1c(Cl)ccc(C#N)c21 (centres unmarked) [Example 341, (8-chloro-5-cyano-1-propyl-1,3,4,9-tetrahydropyrano[3,4-b]indol-1-yl)carboxylic acid] |  |  | 5.44 | 5.77 |
| CCCC1(C(=O)O)OCCc2c1[nH]c1c(F)ccc(C#N)c21 (centres unmarked) [Example 342, (5-cyano-8-fluoro-1-propyl-1,3,4,9-tetrahydropyrano[3,4-b]indol-1-yl)carboxylic acid] |  |  | 5.00 | 5.77 |
| CCC[C@@]1(C(=O)O)OCCc2c1[nH]c1c(F)ccc(C#N)c21 [Example 343, (1R)-(5-cyano-8-fluoro-1-propyl-1,3,4,9-tetrahydropyrano[3,4-b]-indol 1-yl)carboxylic acid] |  |  | < 4.52 | < 4.52 |
| CCCCC1(C(=O)O)OCCc2c1[nH]c1c(F)ccc(C#N)c21 (centres unmarked) [Example 345, (1-butyl-5-cyano-8-fluoro-1,3,4,9-tetrahydropyrano[3,4-b]indol-1-yl)carboxylic acid] |  |  | 5.21 | 5.47 |
| C=CCCC1(C(=O)O)OCCc2c1[nH]c1c(F)ccc(C#N)c21 (centres unmarked) [Example 346, [1-(3-butenyl)-5-cyano-8-fluoro-1,3,4,9-tetrahydropyrano[3,4-b]indol-1-yl]carboxylic acid] |  |  | 5.10 | 5.21 |
| N#Cc1ccc(F)c2[nH]c3c(c12)CCOC3(C(=O)O)C1CCCC1 (centres unmarked) [Example 350, (5-cyano-1-cyclopentyl-8-fluoro-1,3,4,9-tetrahydropyrano[3,4-b]indol-1-yl)carboxylic acid] |  |  | < 4.52 | < 4.52 |
| N#Cc1ccc(F)c2[nH]c3c(c12)CCOC3(C(=O)O)C1CCCCC1 (centres unmarked) [Example 351, (5-cyano-1-cyclohexyl-8-fluoro-1,3,4,9-tetrahydropyrano[3,4-b]indol-1-yl)carboxylic acid] |  |  | < 4.52 | < 4.52 |
| CCCC1(CC(=O)O)OCCc2c1[nH]c1c(C)c(C(=O)O)cc(C#N)c21 (centres unmarked) [Example 353, 1-carboxymethyl-5-cyano-8-methyl-1-propyl-1,3,4,9 tetrahydro-pyrano[3,4-b]indole-7-carboxylic acid] |  |  | 6.09 | 5.70 |
| CCCNC(=O)c1cc(C#N)c2c3c([nH]c2c1C)C(CCC)(CC(=O)O)OCC3 (centres unmarked) [Example 354, (5-cyano-8-methyl-1-propyl-7-propylcarbamoyl-1,3,4,9-tetrahydro-pyrano[3,4-b]indol-1-yl)-acetic acid] |  |  | 5.70 | 5.52 |
| CCCC1(CC(=O)O)OCCc2c1[nH]c1c(C)c(C(=O)NC(C)C)cc(C#N)c21 (centres unmarked) [Example 355, (5-cyano-7-isopropylcarbamoyl-8-methyl-1-propyl-1,3,4,9-tetrahydro-pyrano[3,4-b]indol-1-yl)-acetic acid] |  |  | 5.54 | 5.29 |
| CCCC1(CC(=O)O)OCCc2c1[nH]c1c(C)c(C(=O)NC)cc(C#N)c21 (centres unmarked) [Example 357, (5-cyano-8-methyl-7-methylcarbamoyl-1-propyl-1,3,4,9-tetrahydro-pyrano[3,4-b]indol-1-yl)-acetic acid] |  |  | 6.01 | 5.89 |
| CCCC1(CC(=O)O)OCCc2c1[nH]c1c(C)c(C(=O)N(C)C)cc(C#N)c21 (centres unmarked) [Example 358, (5-cyano-8-methyl-7-dimethylcarbamoyl-1-propyl-1,3,4,9-tetrahydro-pyrano[3,4-b]indol-1-yl)-acetic acid] |  |  | 4.70 | 4.80 |
| CCCOc1cc(C#N)c2c3c([nH]c2c1C)C(CCC)(CC(=O)O)OCC3 (centres unmarked) [Example 359, (5-cyano-8-methyl-7-propoxy-1-propyl-1,3,4,9-tetrahydro-pyrano[3,4-b]indol-1-yl)-acetic acid] |  |  | 7.15 | 7.15 |

| Compound | melting point [°C] | pIC50 ([1]; Table 1A, read-out: HCV pol BK IC50) | pIC50 [2] | pIC50 ([1]; Table 1B, read-out: BK IC50) |
| --- | --- | --- | --- | --- |
| CCCOc1cc(C#N)c2c3c([nH]c2c1C)[C@@](CCC)(CC(=O)O)OCC3 [Example 360, (1R)-(5-cyano-8-methyl-7-propoxy-1-propyl-1,3,4,9-tetrahydro-pyrano[3,4-b]indol-1-yl)-acetic acid] |  |  | 7.40 | 7.05 |
| CCCOc1cc(C#N)c2c3c([nH]c2c1C)[C@](CCC)(CC(=O)O)OCC3 [Example 361, (1S)-(5-cyano-8-methyl-7-propoxy-1-propyl-1,3,4,9-tetrahydro-pyrano[3,4-b]indol-1-yl)-acetic acid] |  |  | 6.11 | 5.74 |
| CCCC1(CC(=O)O)OCCc2c1[nH]c1c(C)c(OC)cc(C#N)c21 (centres unmarked) [Example 363, (5-cyano-7-methoxy-8-methyl-1-propyl-1,3,4,9-tetrahydro-pyrano[3,4-b]indol-1-yl)-acetic acid] |  |  | 6.89 | 6.44 |
| CCCC1(CC(=O)O)OCCc2c1[nH]c1c(C)c(OC(C)C)cc(C#N)c21 (centres unmarked) [Example 364, (5-cyano-7-isopropoxy-8-methyl-1-propyl-1,3,4,9-tetrahydro-pyrano[3,4-b]indol-1-yl)-acetic acid] |  |  | 6.66 | 6.32 |
| CCCCOc1cc(C#N)c2c3c([nH]c2c1C)C(CCC)(CC(=O)O)OCC3 (centres unmarked) [Example 365, (7-butoxy-5-cyano-8-methyl-1-propyl-1,3,4,9-tetrahydro-pyrano[3,4-b]indol-1-yl)-acetic acid] |  |  | 7.22 | 7.00 |
| CCCC1(CC(=O)O)OCCc2c1[nH]c1c(C)c(OCCC(C)(C)C)cc(C#N)c21 (centres unmarked) [Example 366, [5-cyano-7-(3,3-dimethyl-butoxy)-8-methyl-1-propy-1,3,4,9-tetrahydro-pyrano[3,4-b]indol-1-yl]-acetic acid] |  |  | 6.26 | 5.77 |
| CCCC1(CC(=O)O)OCCc2c1[nH]c1c(C)c(OCc3cccc(F)c3)cc(C#N)c21 (centres unmarked) [Example 367, [5-cyano-7-(3-fluoro-benzyloxy)-8-methyl-1-propyl-1,3,4,9-tetrahydro-pyrano[3,4-b]indol-1-yl]acetic acid] |  |  | 7.05 | 7.10 |
| CCCC1(CC(=O)O)OCCc2c1[nH]c1c(C)c(OCc3ccccc3)cc(C#N)c21 (centres unmarked) [Example 368, (7-benzyloxy-5-cyano-8-methyl-1-propyl-1,3,4,9-tetrahydro-pyrano[3,4-b]indol-1-yl)-acetic acid] |  |  | 6.89 | 6.96 |
| CCCC1(CC(=O)O)OCCc2c1[nH]c1c(C)c(OCCF)cc(C#N)c21 (centres unmarked) [Example 369, [5-cyano-7-(2-fluoro-ethoxy)-8-methyl-1-propyl-1,3,4,9-tetrahydro-pyrano[3,4-b]indol-1-yl]acetic acid] |  |  | 8.00 | 8.40 |
| CCCC1(CC(=O)O)OCCc2c1[nH]c1c(C)c(OCCCF)cc(C#N)c21 (centres unmarked) [Example 370, [5-cyano-7-(3-fluoro-propoxy)-8-methyl-1-propyl-1,3,4,9-tetrahydro-pyrano[3,4-b]indol-1-yl]acetic acid] |  |  | 7.52 | 7.40 |
| (5-cyano-7-ethoxy-8-methyl-1-propyl-1,3,4,9-tetrahydro-pyrano[3,4-b]indol-1-yl)-acetic acid [Example 362] |  |  | 7.15 | 6.96 |
| (8-cyano-1-cyclobutyl-5-trifluoromethyl-1,3,4,9-tetrahydropyrano[3,4-b]indol-1-yl)acetic acid [Example 277] |  |  | 5.21 | 5.59 |
| (8-fluoro-5-nitro-1-propyl-1,3,4,9-tetrahydropyrano[3,4-b]indol-1-yl)carboxylic acid [Example 352] |  |  | 5.55 | 6.05 |
| [5-cyano-1-(1-ethylethyl)-8-fluoro-1,3,4,9-tetrahydropyrano[3,4-b]indol-1-yl]acetic acid [Example 311] |  |  | < 4.52 | < 4.52 |
| [5-cyano-1-(1-ethylethyl)-8-methyl-1,3,4,9-tetrahydropyrano[3,4-b]indol-1-yl]acetic acid [Example 294] |  |  | < 4.52 | < 4.52 |
